Patent publication US20240117402A1, “METHODS FOR (POLY) PEPTIDE TANDEM LIGATION AND CYCLIZATION” (Nanyang Technological University, priority 2021, published 2024)
Where two headings read alike, the source gives them in different places. Each block holds one molecule with its values, some of them ahead of it. Where a SMILES comes first, the peptide text is derived from it. Where no end group is shown, it is not given here.

How the values were obtained:
[1] = tested on: MCF-7 cells; test: MTT cell viability assay, MCF-7; type: cell-based
[2] = tested on: A431 cells; test: MTT cell viability assay, A431; type: cell-based
[3] = tested on: OaAEP1b; test: OaAEP1b-catalyzed peptide cyclization (substrate screen, pH scan, kinetics); type: biochemical; conditions: for Km / kcat: cyclization
Experimental: (§1) FIG. 9. Screening of P1′-Asp peptides for cyclization by A) VyPAL2, B) butelase-1 and C) OaAEP1b. Quantitative summary of reaction yields of the reaction mixtures. For each reaction, 25 nM of the enzyme and 5 μM of the peptide substrate (21a-21i) were mixed and reacted at pH 4.5, 25° C. for 60 min. The positive control peptide 21j was performed at the same conditions except at pH 7.4. Average yields and SDs were calculated from experiments performed in triplicate. The amino acid sequence of the peptides used are set forth in SEQ ID Nos. 15-24.
(§2) FIG. 10. Ligation activity of three different ligases under different pH and substrate. Cyclization activity of A) VyPAL2, B) Butelase-1 or C) OaAEP1b towards substrate 21e-DSL and 21j-NGL; Fold difference was calculated using the cyclization rate of 21j-NGL divided by that of 21e-DSL. All the results were the average reaction rate at different pH in triplicate experiments based on MALDI-TOF analysis. Light grey text in the “Fold difference” axis marks to the maximum fold difference.
(§3) FIG. 11. Enzymatic activity of three different ligases on the cyclization reaction of P1-Asp peptide 21e-DSL or 21a-DGL and P1-Asn-peptide 21j-NGL. A) Scheme of PAL-mediated P1-Asp peptide cyclization; B) Enzymatic kinetics of VyPAL2 in cyclizing 21e-DSL at pH 4.5; C) Enzymatic kinetics of VyPAL2 in cyclizing 21e-DSL at pH 7.0; D) Enzymatic kinetics of OaAEP1b in cyclizing 21a-DGL at pH 5.5; E) Enzymatic kinetics of Butelase-1 in cyclizing 21e-DSL at pH 4.5. F) Scheme of PAL-mediated cyclization of peptide 21j-NGL; G). Enzymatic kinetics of butelase-1 in cyclizing […] at pH 4.5; H)
(§4) Enzymatic kinetics of VyPAL2 in cyclizing 21j-NSL at pH 4.5; I) Enzymatic kinetics of butelase-1 in cyclizing 21j-NSL at pH 7.4; J) Enzymatic kinetics of OaAEP1b in cyclizing 21j-NSL at pH 7.0. Sequences of peptides used are set forth in SEQ ID Nos. 15, 19, 24.
(§5) PALs recognize a tripeptide motif Asx-P1′-P2′ in the acyl donor substrate for their catalyzed ligation reactions. Because the formation of the acyl-enzyme thioester intermediate is the rate-limiting step, the leaving group P1′-P2′ also plays an important role in determining the catalytic kinetics of a particular 40 PAL-mediated reaction. Previous studies have determined Leu as a preferred P2′ residue. To identify the most favorable P1′ residues for PAL-catalyzed Asp-ligation, a panel of peptides (peptide 21a-21j) with C-terminal DXL and N-terminal GI motifs was synthesized and cyclization reactions performed. Peptide 21j with a C-terminal NGL, a P1-Asn peptide favored by VyPAL2, was used for comparison with the P1-Asp peptides 21a-21i. […] Meanwhile, the P1′ substrate specificities of the two other ligases - Butelase-1 and OaAEP1b - were also evaluated by using the same substrates 21a-21j.
(§6) A pH scan experiment with the other two ligases: butelase-1 and OaAEP1 b, for their cyclase activity on 21e and 21j was also conducted. […] In fact, the difference in reaction efficiency between 21j and 21e was about 950 times at pH 7.4 (FIG. 10). […] This makes VyPAL2 a more efficient ligase than butelase-1 for Asp-mediated protein modification.
It seems that the microenvironment within the 51 pocket of OaAEP1 b has a unique ability to maintain the γCOOH of P1-Asp in the protonated form. However, for OaAEP1b-catalyzed cyclization, the difference in reactivity between 21j and 21e at pH 4.0-7.4 was not very high. The biggest difference was 9.5 folds at pH 7.4. […]

[4] = tested on: VyPAL2; test: VyPAL2-catalyzed peptide cyclization (substrate screen, pH scan, kinetics); type: biochemical, Viola yedoensis
Experimental: as §1, §2, §3, §4, §5
scanning experiment using the two peptides 21e and 21j was performed. Cyclization reactions were conducted by mixing 5 μM of peptide 21e or 50 μM of 21j with 25 nM of VyPAL2 over a pH range of 4.0 to 7.4. Results confirmed that the optimum pH for the cyclization of the P1-Asn peptide 21j was 6.5-7.4. But for the P1-Asp peptide 21e (which has the C-terminal DSL tripeptide), the optimum pH was 4.0-4.5.
It is worth noting that, at pH 7.4, VyPAL2 processed peptide 21j for cyclization at a rate that is >1000 folds faster than processing peptide 21e (FIG. 10). This enormous difference of reactivity essentially established the orthogonality for ligation at Asn in the presence of aspartyl bonds.

[5] = tested on: butelase-1; test: Butelase-1-catalyzed peptide cyclization (substrate screen, pH scan, kinetics); type: biochemical; conditions: for Km / kcat: Butelase-1, cyclization
Experimental: as §1, §2, §3, §4, §5, §6

[6] = Water solubility; type: physicochemical
[7] = tested on: MCF-7 cells; test: Fluorescence microscopy cell binding/staining, MCF-7; type: cell-based; conditions: MCF-7, 30-min treatment
[8] = tested on: EGFR-overexpressing A431 cells; test: Fluorescence microscopy cell binding/staining, A431; type: cell-based; conditions: A431, 30-min treatment
[9] = molecular target: T1, Peptide 21a (SEQ ID NO:15), GISTKSIPPISYRDGL
T1 chain: GISTKSIPPISYRDGL

[10] = molecular target: T2, Peptide 21j (SEQ ID NO:24), GISTKSIPPISYRNGL
T2 chain: GISTKSIPPISYRNGL

[11] = cyclization of a model peptide; cited from earlier work

butelase-1, sequence (as listed by the source): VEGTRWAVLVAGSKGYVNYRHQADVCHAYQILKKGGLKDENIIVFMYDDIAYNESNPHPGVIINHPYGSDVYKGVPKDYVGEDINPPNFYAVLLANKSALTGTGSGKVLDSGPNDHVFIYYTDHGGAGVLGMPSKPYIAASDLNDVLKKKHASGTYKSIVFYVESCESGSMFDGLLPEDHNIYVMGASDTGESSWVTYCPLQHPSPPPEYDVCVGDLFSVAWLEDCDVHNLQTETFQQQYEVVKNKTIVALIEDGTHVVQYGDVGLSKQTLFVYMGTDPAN

Molecule: CC[C@H](C)[C@H](NC(=O)CN)C(=O)NCC(=O)NCC(=O)N[C@@H](Cc1ccccc1)C(=O)N[C@@H](CCCCN)C(=O)NCC(=O)NCC(=O)N[C@H](CCCCN)C(=O)N[C@H](CC(C)C)C(=O)N[C@H](C)C(=O)N[C@H](CCCCN)C(=O)N[C@H](CC(C)C)C(=O)N[C@H](C)C(=O)N[C@H](CCCCN)C(=O)N[C@H](CCCCN)C(=O)N[C@H](CC(C)C)C(=O)N[C@H](C)C(=O)N[C@H](CCCCN)C(=O)N[C@H](CC(C)C)C(=O)N[C@H](C)C(=O)N[C@H](CCCCN)C(N)=O [Peptide 11] (HELM PEPTIDE1{G.I.G.G.F.K.G.G.[dK].[dL].[dA].[dK].[dL].[dA].[dK].[dK].[dL].[dA].[dK].[dL].[dA].[dK].[am]}$$$$V2.0; N-terminus assumed)
IC50 ([1]; 84 h): ~480 µM | IC50 ([2]; 84 h): ~1300 µM

Molecule: COc1cccc2c1C(=O)c1c(O)c3c(c(O)c1C2=O)C[C@@](O)(C(=O)CO)C[C@@H]3O[C@H]1C[C@H](N)[C@H](O)[C@H](C)O1 [Dox, doxorubicin]
water solubility [6]: poorly soluble in water | IC50 ([1]; Homo sapiens, MCF7, MCF-7, 36 h, MTT, read-out: IC50): 1 ± 0.02 µM | IC50 ([1]; Homo sapiens, MCF7, MCF-7, 96 h, MTT, read-out: IC50): 1.6 ± 0.23 µM | IC50 ([2]; Homo sapiens, A-431, A431, 36 h, MTT, read-out: IC50): 1.3 ± 0.04 µM | IC50 ([2]; Homo sapiens, A-431, A431, 96 h, MTT, read-out: IC50): 1.22 ± 0.15 µM | cell staining (confocal) ([7]; 10 μM): stained | cell staining ([7]; 2 μM 20, 10 μM DOX): stained | cell staining (confocal) ([8]; 10 μM): stained | cell staining ([8]; 2 μM 20, 10 μM DOX): stained

B1: OaAEP1b (SEQ ID NO:44) (protein)
chain: SVGTRWAVLIAGSKGYANYRHQAGVCHAYQILKRGGLKDENIVVFMYDDIAYNESNPRPGVIINSPHGSDVYAGVPKDYTGEEVNAKNFLAAILGNKSAITGGSGKVVDSGPNDHIFIYYTDHGAAGVIGMPSKPYLYADELNDALKKKHASGTYKSLVFYLEACESGSMFEGILPEDLNIYALTSTNTTESSWAYYCPAQENPPPPEYNVCLGDLFSVAWLEDSDVQNSWYETLNQQYHHVDKRISHASHATQYGNLKLGEEGLFVYMGSNPANDNYTSLDGNALTPSSIVVNQRDAD
Km, cyclization at pH 5.5 [9]: 35.1 µM | kcat, cyclization at pH 5.5 [9]: 5.9 s⁻¹ | kcat/Km, cyclization at pH 5.5 [9]: 172000 ± 9250 M^-1s^-1 | Km, cyclization at pH 7.0 [10]: 25.3 µM | kcat, cyclization at pH 7.0 [10]: 5.5 s⁻¹ | kcat/Km, cyclization at pH 7.0 [10]: 211000 ± 8260 M^-1s^-1

B2: VyPAL2: plant legumain from the Viola Yedoensis family, highly active peptidyl asparaginyl ligase (SEQ ID NO:1) (protein)
chain: DSIGTRWAVLIAGSKGYHNYRHQADVCHMYQILRKGGVKDENIIVFMYDDIAYNESNPFPGIIINKPGGENVYKGVPKDYTGEDINNVNFLAAILGNKSAIIGGSGKVLDTSPNDHIFIYYADHGAPGKIGMPSKPYLYADDLVDTLKQKAATGTYKSMVFYVEACNAGSMFEGLLPEGTNIYAMAASNSTEGSWITYCPGTPDFPPEFDVCLGDLWSITFLEDCDAHNLRTETVHQQFELVKKKIAYASTVSQYGDIPISKDSLSVYM
modifications: VyPAL2 core domain
catalytic efficiency [11]: 274,325 M^−1 s^−1

Further lines, with some results ahead:

Km ([3]; pH 5.5): 35.1 ± 5.9 µM
Molecule: GISTKSIPPISYRDGL (GISTKSIPPISYRDGL-NH2) [Peptide 21a]
kcat ([3]; pH 5.5): 5.9 ± 0.7 s⁻¹

Km ([4]; VyPAL2, cyclization, pH 4.5): 28.4 ± 4.1 µM | Km ([4]; VyPAL2, cyclization, pH 7.4): 25.8 ± 1.7 µM | Km ([3]; pH 7.0): 25.3 ± 2.5 µM | Km ([5]; pH 4.5): 12.7 ± 2.1 µM | kcat ([5]; pH 4.5): 0.6 ± 0.05 s⁻¹ | Km ([5]; pH 7.4): 13.5 ± 1.5 µM | kcat ([5]; pH 7.4): 9.4 ± 0.3 s⁻¹ | difference in reaction efficiency between 21j and 21e ([5]; butelase-1, pH 7.4): about 950 times
Molecule: GISTKSIPPISYRNGL (GISTKSIPPISYRNGL-NH2) [Peptide 21j]
optimum pH for cyclization ([4]; 25 nM VyPAL2, pH range 4.0 to 7.4, 5 μM 21e or 50 μM 21j): 6.5-7.4 | kcat ([4]; VyPAL2, cyclization, pH 4.5): 1.9 ± 0.18 s⁻¹ | Vmax ([4]; VyPAL2, cyclization, pH 7.4): 5.633 µM/min | kcat ([4]; VyPAL2, cyclization, pH 7.4): 5.5 ± 0.4 s⁻¹ | fold difference, cyclization rate of 21j versus 21e ([4]; VyPAL2, pH 7.4): > 1000 folds | kcat ([3]; pH 7.0): 5.5 ± 0.3 s⁻¹ | difference in reactivity between 21j and 21e (biggest) ([3]; pH 7.4): 9.5 folds
